Assay results published in patent US12698141B2, “Methods for extracting and encapsulating phenolics from food waste, related compositions, and related articles” (BOARD OF TRUSTEES OF MICHIGAN STATE UNIVERSITY, priority 2019, dated 2026).

Assay: Release of quercetin in PBS solution from electrospun PLLA scaffold (spectrophotometer)
Assay type: physicochemical
Conditions: all three samples (quercetin:PLLA 1:16, 1:8, 1:4)
Procedure: Materials and Methods: For fabrication of the scaffolds, an electrospinning apparatus consisting of a high voltage power supply (PCM series, Spellman, NY, USA) was used for charging the polymer solution, a grounded aluminum roto-translating drum (4 mm outer diameter and 13 cm in length) was used for collecting fibers, and a syringe pump (KDS-100, KD Scientific, Holliston, MA, USA) was used for controlling feed flow rate. Rotation was at 750 rpm and translation velocity at 1000 mm/min. The fluid was pushed out from the syringe with a flow rate of 1.1 mL/h, throughout a 0.25 mm diameter needle with a potential difference of 17 kV. All the samples were obtained using about 1.5 mL of initial solution. The polymer solution was prepared with Poly (L-lactide), PLLA, in 1,1,1,3,3,3-Hexafluoro-2-propanol (HFP) 20% (w/v). Three different volumes of quercetin dihydrate in ethanol (5.5 mg/mL) were added to obtain three different quercetin/polymer ratio: 1:4, 1:8, 1:16. […] The mechanical properties of the scaffolds were measured using uniaxial tensile test. The release of quercetin in PBS solution from the scaffold was measured using spectrophotometer at different times up to 75 days. Growth inhibition activity of quercetin against Escherichia coli and Saccharomyces cerevisiae was also assessed.

- amount of quercetin released (after 75 days of incubation at 4° C.): 50%
- amount of quercetin released (after 75 days of incubation at 20° C.): 50%
SMILES: O=c1c(O)c(-c2ccc(O)c(O)c2)oc2cc(O)cc(O)c12 [quercetin]
